Assay results: patent US7932262B2 (Novartis AG, priority 2006, dated 2011)
Read-outs that look alike come from different tables or passages of the source.

Experiments:
A2780 cells = experiment: Cell Proliferation Assay (Cell Titer Glo), A2780; type: cell-based; settings: Homo sapiens, read-out: CPEC50 A2780
In short: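 Following a 3-day compound exposure (37° C., 5% CO2) of A2780 or PC3MM cells plated at 1000 per well, viability was measured by Cell Titer Glo luminescence in fresh medium, read 10 min after reagent addition.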

PDK1 kinase = target: T1, PDK1 kinase (Homo sapiens, UniProt O15530); experiment: PDK1 Kinase Alpha Screen Assay; type: biochemical; settings: read-out: PDK1 IC50
T1 sequence (O15530 1-556): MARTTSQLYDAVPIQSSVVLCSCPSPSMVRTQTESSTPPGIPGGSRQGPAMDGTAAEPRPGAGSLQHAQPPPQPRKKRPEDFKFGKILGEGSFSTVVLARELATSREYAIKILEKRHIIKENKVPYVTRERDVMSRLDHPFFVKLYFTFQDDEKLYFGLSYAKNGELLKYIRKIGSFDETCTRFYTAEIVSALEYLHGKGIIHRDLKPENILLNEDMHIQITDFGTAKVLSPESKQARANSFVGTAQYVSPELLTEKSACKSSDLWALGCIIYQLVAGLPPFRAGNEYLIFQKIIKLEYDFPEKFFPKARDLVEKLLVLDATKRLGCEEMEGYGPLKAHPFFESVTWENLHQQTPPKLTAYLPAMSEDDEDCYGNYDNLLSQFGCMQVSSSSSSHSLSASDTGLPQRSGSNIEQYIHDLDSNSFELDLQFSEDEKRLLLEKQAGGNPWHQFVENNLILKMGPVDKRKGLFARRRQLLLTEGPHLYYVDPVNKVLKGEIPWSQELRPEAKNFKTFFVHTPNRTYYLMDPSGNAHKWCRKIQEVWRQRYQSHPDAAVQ
In short: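 PDK1, 10 uM ATP, 50 nM biotin-PDK1-4 peptide; 50 mM Tris pH 7.5, 10 mM MgCl2, 0.1% BSA, 0.01% Tween-20, 2 mM DTT, 2.5% DMSO; 3-18 h. EDTA stop; AlphaScreen, phospho-Ser/Thr antibody, overnight RT.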

[1] = 72 h, A2780 cells, 3 days incubation
[2] = Cell Proliferation Assay, A2780

Compound	EC50 (A2780 cells; [1]) [µM]	IC50 (PDK1 kinase) [µM]	EC50 (A2780 cells; [2]) [µM]	IC50 (PDK1 kinase; PDK1 Kinase Alpha Screen Assay) [µM]
NS(=O)(=O)c1ccc(Nc2ncc3cccc(C(=O)N4CCOCC4)c3n2)cc1 [Compound 120, 4-[8-(Morpholine-4-carbonyl)-quinazolin-2-ylamino]-benzenesulfonamide]	5 to 10	5 to 10		
CN1CCN(C(=O)c2cccc3cnc(Nc4ccc(S(N)(=O)=O)cc4)nc23)CC1 [Compound 121, 4-[8-(4-Methyl-piperazine-1-carbonyl)-quinazolin-2-ylamino]-benzenesulfonamide]	5 to 10	< 5		
NS(=O)(=O)c1ccc(Nc2ncc3cccc(C(=O)N4CCS(=O)(=O)CC4)c3n2)cc1 [Compound 122, 4-[8-(1,1-Dioxo-1lambda*6*- thiomorpholine-4-carbonyl)-quinazolin-2-ylamino]-benzenesulfonamide]	5 to 10	10 to 25		
NC(=O)c1cccc(-c2ccc3cnc(Nc4ccc(S(N)(=O)=O)cc4)nc3c2)c1 [Compound 123, 3-[2-(4-Sulfamoyl-phenylamino)-quinazolin-7-yl]-benzamide]	5 to 10	< 5		
NC(=O)c1ccc(-c2ccc3cnc(Nc4ccc(S(N)(=O)=O)cc4)nc3c2)cc1 [Compound 124, 4-[2-(4-Sulfamoyl-phenylamino)-quinazolin-7-yl]-benzamide]	5 to 10	< 5		
Nc1ccc(-c2ccc3cnc(Nc4ccc(S(N)(=O)=O)cc4)nc3c2)cn1 [Compound 130, 4-[7-(6-Amino-pyridin-3-yl)-quinazolin-2-ylamino]-benzenesulfonamide]	< 5	< 5		
NC(=O)c1ccc(-c2ccc3cnc(Nc4ccc(S(N)(=O)=O)cc4)nc3c2)cn1 [Compound 131, 5-[2-(4-Sulfamoyl-phenylamino)-quinazolin-7-yl]-pyridine-2-carboxylic acid amide]	5 to 10	< 5		
NS(=O)(=O)c1ccc(Nc2ncc3ccc(-c4cn[nH]c4)cc3n2)cc1 [Compound 132, 4-[7-(1H-Pyrazol-4-yl)-quinazolin-2-ylamino]-benzenesulfonamide]	< 5	< 5		
CN1CCN(C(=O)c2ccc3cnc(Nc4ccc(S(N)(=O)=O)cc4)nc3c2)CC1 [Compound 135, 4-[7-(4-Methyl-piperazine-1-carbonyl)-quinazolin-2-ylamino]-benzenesulfonamide]	5 to 10	10 to 25		
NS(=O)(=O)c1ccc(Nc2ncc3ccc(-c4ccc(C(=O)N5CCOCC5)cc4)cc3n2)cc1 [Compound 139, 4-{7-[4-(Morpholine-4-carbonyl)-phenyl]-quinazolin-2-ylamino}-benzenesulfonamide]	5 to 10	< 5		
NS(=O)(=O)c1ccc(Nc2ncc3cccc(C(=O)NC4CCCNC4)c3n2)cc1 (centres unmarked) [Compound 140, 2-(4-Sulfamoyl-phenylamino)-quinazoline-8-carboxylic acid piperidin-3-ylamide]	5 to 10	< 5		
CN(C)[C@@H]1CCN(C(=O)c2cccc3cnc(Nc4ccc(S(N)(=O)=O)cc4)nc23)C1 [Compound 141, 4-[8-((R)-3-Dimethylamino-pyrrolidine-1-carbonyl)-quinazolin-2-ylamino]-benzenesulfonamide]	5 to 10	< 5		
NS(=O)(=O)c1ccc(Nc2ncc3cccc(C(=O)N[C@H]4CN5CCC4CC5)c3n2)cc1 [Compound 144, 2-(4-Sulfamoyl-phenylamino)-quinazoline-8-carboxylic acid (R)-3-quinuclidinylamide]	5 to 10	5 to 10		
CC(C)COc1cccc2cnc(Nc3ccc(S(N)(=O)=O)cc3)nc12 [Compound 310, 4-(8-isobutoxyquinazolin-2-ylamino)benzenesulfonamide]			< 5	< 5

Continued, values first:

EC50 (A2780 cells; [1]) [µM]	IC50 (PDK1 kinase) [µM]	EC50 (A2780 cells; [2]) [µM]	IC50 (PDK1 kinase; PDK1 Kinase Alpha Screen Assay) [µM]	Compound
5 to 10	< 5			NS(=O)(=O)c1ccc(Nc2ncc3cccc(C(=O)NC4CCNCC4)c3n2)cc1 [Compound 142, 2-(4-Sulfamoyl-phenylamino)-quinazoline-8-carboxylic acid piperidin-4-ylamide]
5 to 10	< 5			CN(C)[C@H]1CCN(C(=O)c2cccc3cnc(Nc4ccc(S(N)(=O)=O)cc4)nc23)C1 [Compound 143, 4-[8-((S)-3-Dimethylamino-pyrrolidine-1-carbonyl)-quinazolin-2-ylamino]-benzenesulfonamide]
		5 to 10	< 5	CC(=O)Nc1ccc(Nc2ncc3cccc(OC(C)C)c3n2)cc1 [Compound 311, N-(4-(8-isopropoxyquinazolin-2-ylamino)phenyl)acetamide]
		5 to 10	< 5	CC(=O)NS(=O)(=O)c1ccc(Nc2ncc3cccc(OC(C)C)c3n2)cc1 [Compound 312, N-(4-(8-isopropoxyquinazolin-2-ylamino)phenylsulfonyl)acetamide]
		< 5	5 to 10	CC(C)Oc1cccc2cnc(Nc3ccc(NC(=O)CN(C)C)cc3)nc12 [Compound 313, 2-(dimethylamino)-N-(4-(8-isopropoxyquinazolin-2-ylamino)phenyl)acetamide]
		< 5	< 5	Nc1ccc2cnc(Nc3ccc(S(N)(=O)=O)cc3)nc2c1 [Compound 315, 4-(7-aminoquinazolin-2-ylamino]-benzenesulfonamide]
		< 5	< 5	CC(=O)Nc1ccc2cnc(Nc3ccc(S(N)(=O)=O)cc3)nc2c1 [Compound 316, N-(2-(4-sulfamoylphenylamino)quinazolin-7-yl)acetamide]
		< 5	< 5	NS(=O)(=O)c1ccc(Nc2ncc3cccc(OCc4ccc5nnsc5c4)c3n2)cc1 [Compound 386, 4-(8-(benzo[d][1,2,3]thiadiazol-6-ylmethoxy)quinazolin-2-ylamino)benzenesulfonamide]
		< 5	< 5	NS(=O)(=O)c1ccc(Nc2ncc3cc(Br)cc(O)c3n2)cc1 [Compound 388, 4-(6-bromo-8-hydroxyquinazolin-2-ylamino)benzenesulfonamide]
		5 to 10	< 5	NS(=O)(=O)c1ccc(Nc2ncc3cccc(OCCCn4c(=O)[nH]c5ccccc54)c3n2)cc1 [Compound 391, 4-(8-(3-(2-oxo-2,3-dihydro-1H-benzo[d]imidazol-1-yl)propoxy)quinazolin-2-ylamino)benzenesulfonamide]
		< 5	< 5	COCCN(C)Cc1cccc2cnc(Nc3ccc(S(N)(=O)=O)cc3)nc12 [Compound 392, 4-(8-(((2-methoxyethyl)(methyl)amino)methyl)quinazolin-2-ylamino)benzenesulfonamide]
		< 5	< 5	COc1cccc(Oc2cccc3cnc(Nc4ccc(S(N)(=O)=O)cc4)nc23)c1 [Compound 406, 4-(8-(3-methoxyphenoxy)quinazolin-2-ylamino)benzenesulfonamide]
		< 5	< 5	COc1ccc(Oc2cccc3cnc(Nc4ccc(S(N)(=O)=O)cc4)nc23)cc1 [Compound 407, 4-(8-(4-methoxyphenoxy)quinazolin-2-ylamino)benzenesulfonamide]
		5 to 10	< 5	N#Cc1ccc(Oc2cccc3cnc(Nc4ccc(S(N)(=O)=O)cc4)nc23)cc1 [Compound 409, 4-(8-(4-cyanophenoxy)quinazolin-2-ylamino)benzenesulfonamide]
		< 5	< 5	COc1cccc(Oc2ccc3cnc(Nc4ccc(S(N)(=O)=O)cc4)nc3c2)c1 [Compound 415, 4-(7-(3-methoxyphenoxy)quinazolin-2-ylamino)benzenesulfonamide]
		< 5	5 to 10	NS(=O)(=O)c1ccc(Nc2ncc3ccc(Br)c(O)c3n2)cc1 [Compound 421, 4-(7-bromo-8-hydroxyquinazolin-2-ylamino)benzenesulfonamide]
		5 to 10	< 5	CNS(=O)(=O)Cc1ccc(Nc2ncc3cccc(OC)c3n2)cc1 [Compound 498, 1-(4-(8-methoxyquinazolin-2-ylamino)phenyl)-N-methylmethanesulfonamide]
		5 to 10	< 5	CC(C)Oc1cccc2cnc(Nc3ccc(S(=O)(=O)N4CCN(C)CC4)cc3)nc12 [Compound 499, 8-isopropoxy-N-(4-(4-methylpiperazin-1-ylsulfonyl)phenyl)quinazolin-2-amine]
		< 5	< 5	CN(C)CCOc1cccc2cnc(Nc3ccc(C(N)=O)cc3)nc12 [Compound 504, 4-(8-(2-(dimethylamino)ethoxy)quinazolin-2-ylamino)benzamide]
		< 5	< 5	NC(=O)c1ccc(Nc2ncc3cccc(OC4CCCC4)c3n2)cc1 [Compound 505, 4-(8-(cyclopentyloxy)quinazolin-2-ylamino)benzamide]
